# Earlier results, collected in patent US20040191328A1, “Combination of gallium compounds with nonchemotherapeutic anticancer agents in the treatment of neoplasia” (priority 2002, published 2004).
# What was measured:
# [1] = increased exposure secondary to decreased clearance
SMILES,"concentration at which growth inhibition occurs (cells in vitro; chronic exposure, low concentrations)",concentration inducing both cellular cytotoxicity and inhibition of growth (cells in vitro; exposure of duration longer than 24 hours),dose reduction of paclitaxel and doxorubicin needed to achieve equivalent myelosuppression [1]
"O=[N+]([O-])[O-].O=[N+]([O-])[O-].O=[N+]([O-])[O-].[Ga+3] [Gallium nitrate, gallium nitrate]",10 µg/mL,> 50 µg/mL,
C/C=C/C[C@@H](C)C(=O)[C@H]1C(=O)N[C@@H](C(C)C)C(=O)N(C)CC(=O)N(C)[C@@H](CC(C)C)C(=O)N[C@@H](C(C)C)C(=O)N(C)[C@@H](CC(C)C)C(=O)N[C@@H](C)C(=O)N[C@H](C)C(=O)N(C)[C@@H](CC(C)C)C(=O)N(C)[C@@H](CC(C)C)C(=O)N(C)[C@@H](C(C)C)C(=O)N1C [PSC 833],,,2 fold
